Measured values from ChEMBL document CHEMBL2074089, “Methotrexate is excreted into the bile by canalicular multispecific organic anion transporter in rats” (Cancer Res, 1997).

Tests used:
Assay type in all cases: functional, cell membranes, Sprague-Dawley, Bile canalicular membrane vesicle
[1] = target: T1, ATP-binding cassette sub-family C member 2 (Rattus norvegicus, UniProt Q63120); assay: TP_TRANSPORTER: inhibition of L-MTX uptake in bile canalicular membrane vesicles from SD rat
[2] = target: T1, ATP-binding cassette sub-family C member 2; assay: TP_TRANSPORTER: inhibition of DNP-SG uptake in bile canalicular membrane vesicles from SD rat
[3] = substrate: N[C@@H](CCC(=O)N[C@H](CSc1ccc([N+](=O)[O-])cc1[N+](=O)[O-])C(=O)NCC(=O)O)C(=O)O; assay: (§1) TP_TRANSPORTER: uptake in bile canalicular membrane vesicles from SD rat
[4] = substrate: CN(Cc1cnc2nc(N)nc(N)c2n1)c1ccc(C(=O)N[C@@H](CCC(=O)O)C(=O)O)cc1; assay: as §1

With `CN(Cc1cnc2nc(N)nc(N)c2n1)c1ccc(C(=O)N[C@H](CCC(=O)O)C(=O)O)cc1` the Ki [1] was 92.8 µM.

Work on `CN(Cc1cnc2nc(N)nc(N)c2n1)c1ccc(C(=O)N[C@@H](CCC(=O)O)C(=O)O)cc1` [METHOTREXATE] yielded a Ki [2] of 236 µM and a Ki [1] of 326 µM.

B1: ATP-binding cassette sub-family C member 2 (Rattus norvegicus) (protein)
chain: MDKFCNSTFWDLSLLESPEADLPLCFEQTVLVWIPLGFLWLLAPWQLYSVYRSRTKRSSITKFYLAKQVFVVFLLILAAIDLSLALTEDTGQATVPPVRYTNPILYLCTWLLVLAVQHSRQWCVRKNSWFLSLFWILSVLCGVFQFQTLIRALLKDSKSNMAYSYLFFVSYGFQIVLLILTAFSGPSDSTQTPSVTASFLSSITFSWYDRTVLKGYKHPLTLEDVWDIDEGFKTRSVTSKFEAAMTKDLQKARQAFQRRLQKSQRKPEATLHGLNKKQSQSQDVLVLEEAKKKSEKTTKDYPKSWLIKSLFKTFHVVILKSFILKLIHDLLVFLNPQLLKLLIGFVKSSNSYVWFGYICAILMFAVTLIQSFCLQSYFQHCFVLGMCVRTTVMSSIYKKALTLSNLARKQYTIGETVNLMSVDSQKLMDATNYMQLVWSSVIQITLSIFFLWRELGPSILAGVGVMVLLIPVNGVLATKIRNIQVQNMKNKDKRLKIMNEILSGIKILKYFAWEPSFQEQVQGIRKKELKNLLRFGQLQSLLIFILQITPILVSVVTFSVYVLVDSANVLNAEKAFTSITLFNILRFPLSMLPMVTSSILQASVSVDRLERYLGGDDLDTSAIRRVSNFDKAVKFSEASFTWDPDLEATIQDVNLDIKPGQLVAVVGTVGSGKSSLVSAMLGEMENVHGHITIQGSTAYVPQQSWIQNGTIKDNILFGSEYNEKKYQQVLKACALLPDLEILPGGDMAEIGEKGINLSGGQKQRVSLARAAYQDADIYILDDPLSAVDAHVGKHIFNKVVGPNGLLAGKTRIFVTHGIHFLPQVDEIVVLGKGTILEKGSYRDLLDKKGVFARNWKTFMKHSGPEGEATVNNDSEAEDDDDGLIPTMEEIPEDAASLAMRRENSLRRTLSRSSRSSSRRGKSLKNSLKIKNVNVLKEKEKEVEGQKLIKKEFVETGKVKFSIYLKYLQAVGWWSILFIILFYGLNNVAFIGSNLWLSAWTSDSDNLNGTNNSSSHRDMRIGVFGALGLAQGICLLISTLWSIYACRNASKALHGQLLTNILRAPMRFFDTTPTGRIVNRFSGDISTVDDLLPQTLRSWMMCFFGIAGTLVMICMATPVFAIIIIPLSILYISVQVFYVATSRQLRRLDSVTKSPIYSHFSETVTGLPIIRAFEHQQRFLAWNEKQIDINQKCVFSWITSNRWLAIRLELVGNLVVFCSALLLVIYRKTLTGDVVGFVLSNALNITQTLNWLVRMTSEAETNIVAVERISEYINVENEAPWVTDKRPPADWPRHGEIQFNNYQVRYRPELDLVLKGITCNIKSGEKVGVVGRTGAGKSSLTNCLFRILESAGGQIIIDGIDVASIGLHDLRERLTIIPQDPILFSGSLRMNLDPFNKYSDEEVWRALELAHLRSFVSGLQLGLLSEVTEGGDNLSIGQRQLLCLGRAVLRKSKILVLDEATAAVDLETDSLIQTTIRKEFSQCTVITIAHRLHTIMDSDKIMVLDNGKIVEYGSPEELLSNRGSFYLMAKEAGIENVNHTEL
B1 showed a Km [3] of 10.7 µM and a Km [4] of 296 µM.
